# Read-outs that look alike come from different tables or passages of the source.
# Experiments:
# [1] = system: endothelial tube formation in co-cultures of ECFCs and ADSCs treated with VEGF; experiment: cells; assay type: cell-based, human; conditions: for IC50: read-out: VEGF_ADSC\ECFC Angio CD31 TubeArea summarized IC50
# HeLa cells = experiment: cells; assay type: cell-based;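 on Hela CellCycMod PI 4N summarized IC50: value tracks stimulation of 4N DNA content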
# DLD-1 = experiment: cells; assay type: cell-based; conditions: read-out: Basal_Viability ATP DLD-1 summarized IC50
# HCT116 = experiment: cells; assay type: cell-based; conditions: read-out: Basal_Viability ATP HCT116 summarized IC50
# [2] = system: HCT116 cells treated with a GSK3β inhibitor; experiment: cells; assay type: cell-based; conditions: read-out: GSK3b inh pretreated_Viability ATP HCT116 summarized IC50
# Colo320 = experiment: cells; assay type: cell-based; conditions: read-out: Basal_Viability ATP Colo 320 summarized IC50
# hp70S6K1 (RPS6KB1) = molecular target: T1, hp70S6K1 (RPS6KB1) (Homo sapiens, UniProt P23443); experiment: Cerep LANCE kinase assay hp70S6K1 (S1 assay 31); assay type: biochemical; conditions: for IC50: read-out: hp70S6K1 LANCE summarized IC50
# T1 construct: purchased Cerep (LANCE kinase assay platform, contract assay)
# T1 sequence (P23443 whole entry): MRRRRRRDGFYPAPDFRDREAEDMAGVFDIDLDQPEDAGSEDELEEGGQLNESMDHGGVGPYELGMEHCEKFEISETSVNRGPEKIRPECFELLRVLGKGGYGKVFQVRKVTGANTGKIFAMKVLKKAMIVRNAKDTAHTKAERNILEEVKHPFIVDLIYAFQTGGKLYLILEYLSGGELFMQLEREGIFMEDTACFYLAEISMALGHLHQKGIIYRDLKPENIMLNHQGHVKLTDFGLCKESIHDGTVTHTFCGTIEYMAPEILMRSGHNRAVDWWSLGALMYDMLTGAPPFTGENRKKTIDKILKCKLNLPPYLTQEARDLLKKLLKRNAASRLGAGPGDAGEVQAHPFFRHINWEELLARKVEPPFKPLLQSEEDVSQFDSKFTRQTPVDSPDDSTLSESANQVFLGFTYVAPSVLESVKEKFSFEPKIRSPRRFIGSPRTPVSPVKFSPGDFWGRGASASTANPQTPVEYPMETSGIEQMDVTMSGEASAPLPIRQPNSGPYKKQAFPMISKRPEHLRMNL
# hKDR = molecular target: T2, hKDR (Homo sapiens, UniProt P35968); experiment: Cerep LANCE kinase assay hKDR (S1 assay 32); assay type: biochemical; conditions: for IC50: read-out: hKDR LANCE summarized IC50
# T2 construct: purchased Cerep (LANCE kinase assay platform, contract assay)
# T2 sequence (P35968 20-1356): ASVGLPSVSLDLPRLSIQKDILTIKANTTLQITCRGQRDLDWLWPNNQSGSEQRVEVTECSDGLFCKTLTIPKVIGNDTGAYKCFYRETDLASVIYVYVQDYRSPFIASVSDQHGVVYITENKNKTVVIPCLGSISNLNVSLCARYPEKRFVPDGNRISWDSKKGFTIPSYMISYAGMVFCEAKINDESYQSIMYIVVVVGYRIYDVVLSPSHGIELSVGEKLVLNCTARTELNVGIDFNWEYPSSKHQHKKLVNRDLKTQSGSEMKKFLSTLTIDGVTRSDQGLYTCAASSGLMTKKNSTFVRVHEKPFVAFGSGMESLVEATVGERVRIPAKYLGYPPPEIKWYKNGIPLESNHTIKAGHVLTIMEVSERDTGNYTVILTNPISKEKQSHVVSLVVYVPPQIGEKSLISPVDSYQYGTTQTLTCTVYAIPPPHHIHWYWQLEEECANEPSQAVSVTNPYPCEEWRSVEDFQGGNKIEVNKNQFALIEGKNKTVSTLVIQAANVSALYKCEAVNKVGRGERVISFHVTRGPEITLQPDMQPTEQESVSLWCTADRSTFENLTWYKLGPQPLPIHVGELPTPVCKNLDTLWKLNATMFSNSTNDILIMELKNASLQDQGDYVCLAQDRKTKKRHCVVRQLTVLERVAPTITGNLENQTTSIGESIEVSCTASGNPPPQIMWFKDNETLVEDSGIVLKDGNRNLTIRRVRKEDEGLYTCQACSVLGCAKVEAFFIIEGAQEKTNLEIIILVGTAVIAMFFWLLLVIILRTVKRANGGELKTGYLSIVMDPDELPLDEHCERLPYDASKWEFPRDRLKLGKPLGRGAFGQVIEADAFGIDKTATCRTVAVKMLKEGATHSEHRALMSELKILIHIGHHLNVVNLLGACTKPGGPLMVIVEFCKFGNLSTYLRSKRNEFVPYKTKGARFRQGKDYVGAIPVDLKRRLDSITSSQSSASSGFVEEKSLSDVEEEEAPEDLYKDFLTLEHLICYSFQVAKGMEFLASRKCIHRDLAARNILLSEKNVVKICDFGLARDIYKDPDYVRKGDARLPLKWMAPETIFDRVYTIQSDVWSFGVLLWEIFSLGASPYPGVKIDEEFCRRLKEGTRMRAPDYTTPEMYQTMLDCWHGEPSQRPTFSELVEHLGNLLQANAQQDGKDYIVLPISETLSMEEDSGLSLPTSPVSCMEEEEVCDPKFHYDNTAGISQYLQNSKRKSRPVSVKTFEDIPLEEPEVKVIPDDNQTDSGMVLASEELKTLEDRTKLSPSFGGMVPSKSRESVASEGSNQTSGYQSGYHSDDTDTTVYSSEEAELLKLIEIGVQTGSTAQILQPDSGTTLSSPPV
# hGSK3b = molecular target: T3, hGSK3b (Homo sapiens, UniProt P49841); experiment: Cerep LANCE kinase assay hGSK3b (S1 assay 34); assay type: biochemical; conditions: for IC50: read-out: hGSK3b LANCE summarized IC50
# T3 construct: purchased Cerep (LANCE kinase assay platform, contract assay)
# T3 sequence (P49841 whole entry): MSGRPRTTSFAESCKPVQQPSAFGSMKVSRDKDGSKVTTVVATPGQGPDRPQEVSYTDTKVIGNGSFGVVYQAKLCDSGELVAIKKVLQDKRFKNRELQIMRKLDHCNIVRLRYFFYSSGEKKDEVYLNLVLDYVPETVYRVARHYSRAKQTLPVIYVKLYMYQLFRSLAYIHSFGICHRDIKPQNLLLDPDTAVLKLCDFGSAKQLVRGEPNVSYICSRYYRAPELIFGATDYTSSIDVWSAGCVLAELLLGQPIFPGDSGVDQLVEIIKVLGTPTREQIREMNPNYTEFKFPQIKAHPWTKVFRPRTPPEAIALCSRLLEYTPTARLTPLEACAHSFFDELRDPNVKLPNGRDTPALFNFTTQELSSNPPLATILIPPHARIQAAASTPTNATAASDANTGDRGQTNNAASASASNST
# hFLT3 = molecular target: T4, hFLT3 (Homo sapiens, UniProt P36888); experiment: Cerep LANCE kinase assay hFLT3 (S1 assay 35); assay type: biochemical; conditions: for IC50: read-out: hFLT3 LANCE summarized IC50
# T4 construct: purchased Cerep (LANCE kinase assay platform, contract assay)
# T4 sequence (P36888 27-993): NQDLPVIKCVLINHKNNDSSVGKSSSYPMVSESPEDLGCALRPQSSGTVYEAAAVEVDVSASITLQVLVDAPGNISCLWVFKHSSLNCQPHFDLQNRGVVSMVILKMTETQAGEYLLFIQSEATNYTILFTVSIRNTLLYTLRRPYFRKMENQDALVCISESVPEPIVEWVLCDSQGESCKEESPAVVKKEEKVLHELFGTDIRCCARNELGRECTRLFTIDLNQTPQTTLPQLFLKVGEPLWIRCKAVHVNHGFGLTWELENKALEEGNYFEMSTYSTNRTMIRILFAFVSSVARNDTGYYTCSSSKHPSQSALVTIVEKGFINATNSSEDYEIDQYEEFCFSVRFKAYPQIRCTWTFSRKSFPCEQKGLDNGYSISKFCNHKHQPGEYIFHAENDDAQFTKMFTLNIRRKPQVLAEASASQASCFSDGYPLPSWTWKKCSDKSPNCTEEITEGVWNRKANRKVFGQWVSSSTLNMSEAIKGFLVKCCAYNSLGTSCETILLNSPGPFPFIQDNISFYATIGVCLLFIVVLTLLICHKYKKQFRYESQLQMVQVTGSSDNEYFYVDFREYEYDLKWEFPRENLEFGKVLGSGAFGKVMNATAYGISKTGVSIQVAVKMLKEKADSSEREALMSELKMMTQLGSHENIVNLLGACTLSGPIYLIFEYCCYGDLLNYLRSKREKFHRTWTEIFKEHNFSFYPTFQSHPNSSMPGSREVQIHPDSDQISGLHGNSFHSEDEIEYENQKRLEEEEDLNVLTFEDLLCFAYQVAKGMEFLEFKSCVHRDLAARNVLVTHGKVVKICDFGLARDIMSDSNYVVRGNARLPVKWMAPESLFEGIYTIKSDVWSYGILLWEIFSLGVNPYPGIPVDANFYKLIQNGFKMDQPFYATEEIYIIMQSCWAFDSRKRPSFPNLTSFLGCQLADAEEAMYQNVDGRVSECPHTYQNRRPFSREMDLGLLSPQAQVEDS
# [3] = system: ECFC/ADSC co-culture cell nuclei number; conditions: for IC50: read-out: VEGF_ADSC\ECFC Angio Hoechst NucArea summarized IC50
# hJAK2 = molecular target: T5, hJAK2 (Homo sapiens, UniProt O60674); experiment: Cerep LANCE kinase assay hJAK2 (S1 assay 33); assay type: biochemical; conditions: assay number 33; for IC50: read-out: hJAK2 LANCE summarized IC50
# T5 construct: purchased Cerep (LANCE kinase assay platform, contract assay)
# T5 sequence (O60674 whole entry): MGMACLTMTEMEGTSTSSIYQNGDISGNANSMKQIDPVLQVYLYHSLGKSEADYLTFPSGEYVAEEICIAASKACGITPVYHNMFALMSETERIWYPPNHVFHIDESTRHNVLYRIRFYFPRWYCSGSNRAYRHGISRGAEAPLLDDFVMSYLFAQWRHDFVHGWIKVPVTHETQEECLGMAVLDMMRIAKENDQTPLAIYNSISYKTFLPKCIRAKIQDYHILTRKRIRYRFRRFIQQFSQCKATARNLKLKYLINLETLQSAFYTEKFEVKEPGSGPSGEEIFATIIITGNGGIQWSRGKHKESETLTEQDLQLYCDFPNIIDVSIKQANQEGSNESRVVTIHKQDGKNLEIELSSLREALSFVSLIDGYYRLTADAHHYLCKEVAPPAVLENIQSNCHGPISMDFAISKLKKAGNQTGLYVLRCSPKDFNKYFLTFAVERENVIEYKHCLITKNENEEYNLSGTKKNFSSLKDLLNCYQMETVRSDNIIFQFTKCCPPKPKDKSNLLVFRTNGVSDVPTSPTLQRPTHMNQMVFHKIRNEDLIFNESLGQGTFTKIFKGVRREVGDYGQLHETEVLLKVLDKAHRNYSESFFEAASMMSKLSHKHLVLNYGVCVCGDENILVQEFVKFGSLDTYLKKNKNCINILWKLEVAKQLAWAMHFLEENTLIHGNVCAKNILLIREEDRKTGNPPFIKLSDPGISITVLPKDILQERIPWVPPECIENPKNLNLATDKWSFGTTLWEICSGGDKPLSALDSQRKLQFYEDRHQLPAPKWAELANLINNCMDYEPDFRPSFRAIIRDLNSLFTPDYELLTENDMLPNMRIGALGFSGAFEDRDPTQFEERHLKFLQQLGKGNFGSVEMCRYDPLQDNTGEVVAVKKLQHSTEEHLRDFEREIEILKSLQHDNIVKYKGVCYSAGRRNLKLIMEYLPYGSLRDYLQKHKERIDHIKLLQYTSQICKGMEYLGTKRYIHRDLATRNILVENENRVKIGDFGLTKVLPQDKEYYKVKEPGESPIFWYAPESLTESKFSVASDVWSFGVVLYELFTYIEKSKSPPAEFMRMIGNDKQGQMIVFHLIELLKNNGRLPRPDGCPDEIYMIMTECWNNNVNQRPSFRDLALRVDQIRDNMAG
# SW480 = experiment: cells; assay type: cell-based; conditions: assay number 24; basal; read-out: Basal_Viability ATP SW480 summarized IC50
# HT-29 = experiment: cells; assay type: cell-based; conditions: assay number 28; basal; read-out: Basal_Viability ATP HT-29 summarized IC50
# RKO = experiment: cells; assay type: cell-based; conditions: assay number 29; basal; read-out: Basal_Viability ATP RKO summarized IC50
# SNU-C1 = experiment: cells; assay type: cell-based; conditions: assay number 30; basal; read-out: Basal_Viability ATP SNU-C1 summarized IC50
# [4] = assay number 14, 2N, read-out: Hela CellCycMod PI 2N summarized IC50
# [5] = assay number 16, 4N, read-out: Hela CellCycMod PI 4N summarized IC50
# [6] = assay number 17, MI, read-out: Hela CellCycMod PI MI summarized IC50
# [7] = assay number 18, cell number, read-out: Hela CellCycMod PI Cell Number summarized IC50
# [8] = assay number 15, S phase, read-out: Hela CellCycMod PI S Phase summarized IC50
# [9] = assay number 26, GSK3b inhibitor pretreated
SMILES,IC50 [1],IC50 [3],IC50 (HeLa cells; [4]),IC50 (HeLa cells; [5]),IC50 (HeLa cells; [6]),IC50 (HeLa cells; [7]),"IC50 (DLD-1; assay number 23, basal)",IC50 (SW480),"IC50 (HCT116; assay number 25, basal)","IC50 (Colo320; assay number 27, basal)",IC50 (HT-29),IC50 (RKO),IC50 (SNU-C1),IC50 (hp70S6K1 (RPS6KB1); assay number 31),IC50 (hKDR; assay number 32),IC50 (hJAK2),IC50 (hGSK3b; assay number 34),IC50 (hFLT3; assay number 35),IC50 (HeLa cells; [8]),"IC50 [2, 9]",also measured
O=C(Nc1ccc([N+](=O)[O-])cc1Cl)c1cc(Cl)ccc1O [NCGC00015735-11],0.112 µM,5.81 µM,–,–,–,–,–,–,–,–,–,–,–,–,–,–,–,–,–,–,IC50 (HeLa cells; read-out: Hela CellCycMod PI 2N summarized IC50): > 10 µM; IC50 (HeLa cells; read-out: Hela CellCycMod PI 4N summarized IC50): > 10 µM; IC50 (HeLa cells; read-out: Hela CellCycMod PI Cell Number summarized IC50): 0.144 µM; IC50 (HeLa cells; read-out: Hela CellCycMod PI MI summarized IC50): > 10 µM; IC50 (HeLa cells; read-out: Hela CellCycMod PI S Phase summarized IC50): > 10 µM; IC50 (DLD-1): 0.00349 µM; IC50 (HCT116): 0.00144 µM; IC50 [2]: 0.00295 µM; IC50 (Colo320): 0.00826 µM; IC50 (hp70S6K1 (RPS6KB1)): > 20 µM; IC50 (hKDR): > 20 µM; IC50 (hGSK3b): > 20 µM; IC50 (hFLT3): > 20 µM
COc1cc(-c2ccc(=O)[nH]n2)ccc1OC(F)F [NCGC00016106-13],–,–,–,–,–,–,–,–,–,–,–,–,–,–,–,–,–,–,–,–,"VEGF_ADSC\ECFC Angio CD31 TubeArea IC50/EC50 [1]: 1.2205 µM; Hela CellCycMod PI 2N IC50/EC50 (HeLa cells; assay number 14, 2N): > 10 µM; Hela CellCycMod PI S Phase IC50/EC50 (HeLa cells; assay number 15, S phase): > 10 µM; Hela CellCycMod PI 4N IC50/EC50 (HeLa cells; assay number 16, 4N): > 10 µM; Hela CellCycMod PI MI IC50/EC50 (HeLa cells; assay number 17, MI): > 10 µM; Hela CellCycMod PI Cell Number IC50/EC50 (HeLa cells; assay number 18, cell number): 0.0092 µM; hp70S6K1 LANCE IC50/EC50 (hp70S6K1 (RPS6KB1); assay number 31): > 20 µM; hKDR LANCE IC50/EC50 (hKDR; assay number 32): > 20 µM; hJAK2 LANCE IC50/EC50 (hJAK2): > 20 µM; hGSK3b LANCE IC50/EC50 (hGSK3b; assay number 34): > 20 µM; hFLT3 LANCE IC50/EC50 (hFLT3; assay number 35): > 20 µM; VEGF_ADSC\ECFC Angio Hoechst NucArea IC50/EC50 [3]: > 10 µM"
Oc1c(I)cc(I)c2cccnc12 [NCGC00018098-07],2.39 µM,> 10 µM,> 10 µM,> 10 µM,> 10 µM,> 10 µM,0.0178 µM,0.0036 µM,0.041 µM,0.0213 µM,0.705 µM,0.0227 µM,0.0387 µM,> 20 µM,> 20 µM,> 20 µM,> 20 µM,> 20 µM,–,–,–
Oc1c(Cl)cc(Cl)cc1Sc1cc(Cl)cc(Cl)c1O [NCGC00018163-10],1.79 µM,> 10 µM,> 10 µM,> 10 µM,> 10 µM,> 10 µM,0.001 µM,0.001 µM,0.001 µM,0.015 µM,0.996 µM,0.001 µM,0.00867 µM,> 20 µM,–,> 20 µM,6.57 µM,> 20 µM,> 10 µM,0.001 µM,–
COc1cc([C@@H]2c3cc4c(cc3[C@H](O)[C@H]3COC(=O)[C@H]23)OCO4)cc(OC)c1OC [NCGC00022001-13],0.0081 µM,> 10 µM,0.0089 µM,0.0077 µM,0.0112 µM,0.0048 µM,–,–,–,–,–,–,–,> 20 µM,> 20 µM,> 20 µM,> 20 µM,> 20 µM,> 10 µM,–,–
CCCCCCCCCCCCCCCC[n+]1ccccc1 [NCGC00091023-06],–,3.01 µM,1.25 µM,> 10 µM,0.515 µM,0.405 µM,1.93 µM,1.61 µM,1.19 µM,1.64 µM,2.29 µM,1.27 µM,0.934 µM,> 20 µM,–,> 20 µM,> 20 µM,> 20 µM,> 10 µM,2.29 µM,–

# Reference: article PMC4503722, “Novel Phenotypic Outcomes Identified for a Public Collection of Approved Drugs from a Publicly Accessible Panel of Assays” (PLoS ONE, 2015)
